Read-outs that look alike come from different tables or passages of the source.
Target: human factor Xa (Homo sapiens, UniProt P00742)
Experiment: Factor Xa assay (chromogenic, substrate S-2765);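 further: purified enzyme preincubated with inhibitor for 10 min before substrate addition, final reaction volume 100 µl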
Assay type: biochemical
Settings: read-out: Ki(FXa)
[1] = inhibition constant for factor Xa, purified enzyme 0.5 nM, substrate S-2765 140 μM, 25° C., pH 7.8, Ki=IC50/{1+(substrate concentration/Km)}

Sequence of human factor Xa (P00742 235-488 limits assumed): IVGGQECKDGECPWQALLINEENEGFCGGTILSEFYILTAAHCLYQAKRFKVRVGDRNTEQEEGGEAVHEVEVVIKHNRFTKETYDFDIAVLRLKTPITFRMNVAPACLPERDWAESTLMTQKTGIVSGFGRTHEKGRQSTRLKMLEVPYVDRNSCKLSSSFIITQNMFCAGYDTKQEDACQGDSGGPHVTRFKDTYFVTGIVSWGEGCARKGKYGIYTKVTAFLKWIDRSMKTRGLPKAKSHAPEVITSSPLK
Sequence of human factor Xa (P00742 41-179 partner limits assumed): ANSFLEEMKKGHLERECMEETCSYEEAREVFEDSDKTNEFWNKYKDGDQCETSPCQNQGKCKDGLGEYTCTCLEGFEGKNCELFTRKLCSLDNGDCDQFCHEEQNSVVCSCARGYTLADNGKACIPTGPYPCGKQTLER

Row | Compound | Ki [1] [nM] | Ki [nM]
1 | CC(C)N1CCC(NC(=O)c2cc3ccccc3n2Cc2cc(-c3ccc(Cl)cc3)no2)CC1 [Example 211, 1-[3-(4-Chloro-phenyl)-isoxazol-5-ylmethyl]-1H-indole-2-carboxylic acid (1-isopropyl-piperidin-4-yl)-amide] | 400 | –
2 | CC(C)N1CCC(NC(=O)c2cc3ccccc3n2Cc2cc(-c3ccc(Cl)cc3)on2)CC1 [Example 212, 1-[5-(4-Chloro-phenyl)-isoxazol-3-ylmethyl]-1H-indole-2-carboxylic acid (1-isopropyl-piperidin-4-yl)-amide] | 810 | –
3 | CC(C)N1CCC(NC(=O)c2cc3ccccc3n2Cc2nc(-c3ccc(Cl)cc3)no2)CC1 [Example 213, 1-[3-(4-Chloro-phenyl)-[1,2,4]oxadiazol-5-ylmethyl]-1H-indole-2-carboxylic acid (1-isopropyl-piperidin-4-yl)-amide] | 2230 | –
4 | CC(C)N1CCC(NC(=O)c2cc3cc(F)ccc3n2CC(=O)Nc2ccc(Cl)cn2)CC1 [Example 217, 1-[(5-Chloro-pyridin-2-ylcarbamoyl)-methyl]-5-fluoro-1H-indole-2-carboxylic acid (1-isopropyl-piperidin-4-yl)-amide] | – | 700
5 | CCN1CC[C@H](NC(=O)c2cc3ccccc3n2Cc2cc(-c3ccc(Cl)s3)on2)C1 [Example 219] | – | 173
6 | CCN1CC[C@@H](NC(=O)c2cc3ccccc3n2Cc2cc(-c3ccc(Cl)s3)on2)C1 [Example 220, R-1-[5-(5-Chloro-thiophen-2-yl)-isoxazol-3-ylmethyl]-1H-indole-2-carboxylic acid (1-ethyl-pyrrolidin-3-yl)-amide] | – | 102
7 | CC(C)N1CC[C@@H](NC(=O)c2cc3ccccc3n2Cc2cc(-c3ccc(Cl)s3)on2)C1 [Example 221, R-1-[5-(5-Chloro-thiophen-2-yl)-isoxazol-3-ylmethyl]-1H-indole-2-carboxylic acid (1-isopropyl-pyrrolidin-3-yl)-amide] | 48 | –
8 | CC(C)N1CC[C@H](NC(=O)c2cc3ccccc3n2Cc2cc(-c3ccc(Cl)s3)on2)C1 [Example 222, S-1-[5-(5-Chloro-thiophen-2-yl)-isoxazol-3-ylmethyl]-1H-indole-2-carboxylic (1-isopropyl-pyrrolidin-3-yl)-amide] | 103 | –
9 | CCOC(=O)CN(C(=O)c1cc2c(C(F)(F)F)cccc2n1Cc1cc(-c2ccc(Cl)s2)on1)C1CCN(C(C)C)CC1 [Example 223, [{1-[5-(5-Chloro-thiophen-2-yl)-isoxazol-3-ylmethyl]-4-trifluoromethyl-1H-indole-2-carbonyl}-(1-isopropyl-piperidin-4-yl)-amino]-acetic acid ethyl ester] | – | 110
10 | CC(C)N1CCC(N(CC(=O)O)C(=O)c2cc3c(C(F)(F)F)cccc3n2Cc2cc(-c3ccc(Cl)s3)on2)CC1 [Example 229, [{1-[5-(5-Chloro-thiophen-2-yl)-isoxazol-3-ylmethyl]-4-trifluoromethyl-1H-indole-2-carbonyl}-(1-isopropyl-piperidin-4-yl)-amino]-acetic acid] | – | 172

The next lines start with the values.

Row | Ki [1] [nM] | Ki [nM] | Compound
11 | – | 52 | CC(C)N1CCC(NC(=O)c2cc3cc(S(C)(=O)=O)ccc3n2CC(=O)Nc2ccc(Cl)cn2)CC1 [Example 214, 1-[(5-Chloro-pyridin-2-ylcarbamoyl)-methyl]-5-methanesulfonyl-1H-indole-2-carboxylic acid (1-isopropyl-piperidin-4-yl)-amide]
12 | – | 23 | CC(C)N1CCC(NC(=O)c2cc3cc(S(C)(=O)=O)ccc3n2CC(=O)Nc2ccc(Cl)cc2)CC1 [Example 215, 1-[(4-Chloro-phenylcarbamoyl)-methyl]-5-methanesulfonyl-1H-indole-2-carboxylic acid (1-isopropyl-piperidin-4-yl)-amide]
13 | – | 9 | CC(C)N1CCC(NC(=O)c2cc3cc(Cl)ccc3n2CC(=O)Nc2ccc(Cl)cn2)CC1 [Example 216, 5-Chloro-1-[(5-chloro-pyridin-2-ylcarbamoyl)-methyl]-1H-indole-2-carboxylic acid (1-isopropyl-piperidin-4-yl)-amide]
14 | – | 1 | CC(C)N1CCC(NC(=O)c2cc3cc(F)cc(F)c3n2CC(=O)Nc2ccc(Cl)cn2)CC1 [Example 218, 1-[(5-Chloro-pyridin-2-ylcarbamoyl)-methyl]-5,7-difluoro-1H-indole-2-carboxylic acid (1-isopropyl-piperidin-4-yl)-amide]
15 | – | 21 | CCOC(=O)CN(C(=O)c1cc2c(C)ccc(C)c2n1Cc1cc(-c2ccc(Cl)s2)on1)C1CCN(C(C)C)CC1 [Example 224, [{1-[5-(5-Chloro-thiophen-2-yl)-isoxazol-3-ylmethyl]-4,7-dimethyl-1H-indole-2-carbonyl}-(1-isopropyl-piperidin-4-yl)-amino]-acetic acid ethyl ester]
16 | – | 26 | CCOC(=O)CN(C(=O)c1cc2c(OC)ccc(OC)c2n1Cc1cc(-c2ccc(Cl)s2)on1)C1CCN(C(C)C)CC1 [Example 225, [{1-[5-(5-Chloro-thiophen-2-yl)-isoxazol-3-ylmethyl]-4,7-dimethoxy-1H-indole-2-carbonyl}-(1-isopropyl-piperidin-4-yl)-amino]-acetic acid ethyl ester]
17 | – | 83 | CCOC(=O)CN(C(=O)c1cc2c(Cl)ccc(Cl)c2n1Cc1cc(-c2ccc(Cl)s2)on1)C1CCN(C(C)C)CC1 [Example 226, [{4,7-Dichloro-1-[5-(5-chloro-thiophen-2-yl)-isoxazol-3-ylmethyl]-1H-indole-2-carbonyl}-(1-isopropyl-piperidin-4-yl)-amino]-acetic acid ethyl ester]
18 | – | 88 | CCOC(=O)CN(C(=O)c1cc2cc(Cl)cc(Cl)c2n1Cc1cc(-c2ccc(Cl)s2)on1)C1CCN(C(C)C)CC1 [Example 227, [{5,7-Dichloro-1-[5-(5-chloro-thiophen-2-yl)-isoxazol-3-ylmethyl]-1H-indole-2-carbonyl}-(1-isopropyl-piperidin-4-yl)-amino]-acetic acid ethyl ester]
19 | – | 51 | CCOC(=O)CN(C(=O)c1cc2c(Cl)cccc2n1Cc1cc(-c2ccc(Cl)s2)on1)C1CCN(C(C)C)CC1 [Example 228, [{4-Chloro-1-[5-(5-chloro-thiophen-2-yl)-isoxazol-3-ylmethyl]-1H-indole-2-carbonyl}-(1-isopropyl-piperidin-4-yl)-amino]-acetic acid ethyl ester]
20 | – | 12 | Cc1ccc(C)c2c1cc(C(=O)N(CC(=O)O)C1CCN(C(C)C)CC1)n2Cc1cc(-c2ccc(Cl)s2)on1 [Example 230, [{1-[5-(5-Chloro-thiophen-2-yl)-isoxazol-3-ylmethyl]-4,7-dimethyl-1H-indole-2-carbonyl}-(1-isopropyl-piperidin-4-yl)-amino]-acetic acid]
21 | – | 20 | COc1ccc(OC)c2c1cc(C(=O)N(CC(=O)O)C1CCN(C(C)C)CC1)n2Cc1cc(-c2ccc(Cl)s2)on1 [Example 231, [{1-[5-(5-Chloro-thiophen-2-yl)-isoxazol-3-ylmethyl]-4,7-dimethoxy-1H-indole-2-carbonyl}-(1-isopropyl-piperidin-4-yl)-amino]-acetic acid]
22 | – | 55 | CC(C)N1CCC(N(CC(=O)O)C(=O)c2cc3c(Cl)ccc(Cl)c3n2Cc2cc(-c3ccc(Cl)s3)on2)CC1 [Example 232, [{4,7-Dichloro-1-[5-(5-chloro-thiophen-2-yl)-isoxazol-3-ylmethyl]-1H-indole-2-carbonyl}-(1-isopropyl-piperidin-4-yl)-amino]-acetic acid]
